# Measurements reported in PubChem BioAssay AID1033 (Sanford-Burnham Center for Chemical Genomics, 2008).
# The source made the active and inactive calls. The rule behind the calls is not given here.
# Target: Chaperone protein DnaK (Escherichia coli (strain K12)) (UniProt P0A6Y8)
# Test: binders of DnaK substrate-binding domain, biophysical, NMR, chaperone (AID 1033)
# Settings: Purified DnaK SBD, NMR ligand binding
# Chaperone protein DnaK (Escherichia coli (strain K12)), sequence (P0A6Y8 whole entry, looked up, the tested form may be a part): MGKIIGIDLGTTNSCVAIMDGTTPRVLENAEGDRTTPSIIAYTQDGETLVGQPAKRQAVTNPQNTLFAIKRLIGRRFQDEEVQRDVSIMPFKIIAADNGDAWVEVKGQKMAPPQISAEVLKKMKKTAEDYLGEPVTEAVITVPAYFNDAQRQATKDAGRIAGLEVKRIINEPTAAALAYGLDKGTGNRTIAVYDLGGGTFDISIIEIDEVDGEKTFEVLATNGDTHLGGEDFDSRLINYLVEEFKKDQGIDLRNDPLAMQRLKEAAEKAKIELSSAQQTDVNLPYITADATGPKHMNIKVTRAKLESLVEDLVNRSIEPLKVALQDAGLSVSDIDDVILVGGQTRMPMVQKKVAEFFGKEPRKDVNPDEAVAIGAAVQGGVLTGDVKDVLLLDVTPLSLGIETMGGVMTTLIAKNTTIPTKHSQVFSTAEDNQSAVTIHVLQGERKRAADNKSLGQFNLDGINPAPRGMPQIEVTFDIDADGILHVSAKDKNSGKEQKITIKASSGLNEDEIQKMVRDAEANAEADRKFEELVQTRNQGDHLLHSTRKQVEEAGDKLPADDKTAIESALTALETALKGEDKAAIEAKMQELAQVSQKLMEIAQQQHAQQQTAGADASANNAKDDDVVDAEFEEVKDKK
row,Structure (SMILES),Kd
1,COc1cc([C@@H]2c3cc4c(cc3[C@H](OC(C)=O)[C@H]3COC(=O)[C@@H]23)OCO4)cc(OC)c1OC,> 4 mM (inactive)
2,Cc1ccc(-c2cc(C(=O)N3CCCC3)no2)cc1,> 4 mM (inactive)
3,CSc1ncc(C(=O)O)n1Cc1ccccc1,> 4 mM (inactive)
4,O=C(O)c1cccc(O)c1O,> 4 mM (inactive)
5,CC1=NN2C(=N)CC(=O)N=C2S1,> 4 mM (inactive)
6,Cc1nn2c(-c3ccco3)nnc2c2ccccc12,> 4 mM (inactive)
7,O=c1[nH]c(N2CCOCC2)nc2ccccc12,> 4 mM (inactive)
8,O=C(c1ccco1)N1CCNCC1,> 4 mM (inactive)
9,CN1C(=O)CC(=O)N(C)c2ccccc21,> 4 mM (inactive)
10,O=C(O)c1ccc(CN2CCOCC2)cc1,> 4 mM (inactive)
11,CC(=O)Nc1cc(S(=O)(=O)N(C)C)ccc1Cl,> 4 mM (inactive)
12,CC1CCN(C(=O)c2ccc(NS(C)(=O)=O)cc2)CC1,> 4 mM (inactive)
13,NCc1csc(-c2ccccc2)n1,> 4 mM (inactive)
14,Cc1[nH]n(-c2ccccc2)c(=O)c1[N+](=O)[O-],> 4 mM (inactive)
15,C=C[C@@]1(C)CC(=O)[C@@]2(O)[C@](C)(O1)[C@@H](OC(C)=O)[C@@H](O)C1C(C)(C)CC[C@H](O)[C@@]12C (some centres not stated),> 4 mM (inactive)
16,Nc1cccc(-c2cnco2)c1,> 4 mM (inactive)
17,CCN(CC)S(=O)(=O)c1ccc(F)cc1,> 4 mM (inactive)
18,O=C(c1nc2ncccn2n1)N1CCc2ccccc2C1,> 4 mM (inactive)
19,Cc1cc(N2C(=O)CCC2=O)n(-c2ccccc2)n1,> 4 mM (inactive)
20,CC1=C(C(N)=O)C(c2ccccc2)NC(=O)N1 (configuration not stated),> 4 mM (inactive)
21,O=C(CSc1nc2ccccc2[nH]1)N1CCCCC1,> 4 mM (inactive)
22,Cc1cc(C(=O)NC(C)c2ccncc2)cs1 (configuration not stated),> 4 mM (inactive)
23,NC(=O)CSc1nnc(-c2ccncc2)o1,> 4 mM (inactive)
24,Nc1ccc(CN2CCS(=O)(=O)CC2)cc1,> 4 mM (inactive)
25,NC(=O)C12CC3CC(C1)C(=O)C(C3)C2,> 4 mM (inactive)

row,Structure (SMILES),Kd
1,CCCCCCCCCCCC[C@H](C(=O)O)[C@@H](C)C(=O)O,> 4 mM (inactive)
2,O=C(O)C(Cc1cnc[nH]1)N1C(=O)c2ccccc2C1=O (configuration not stated),> 4 mM (inactive)
3,CC(=O)Nn1cc2c(=O)n(C)c(=O)n(C)c2c1,> 4 mM (inactive)
4,Cc1n[nH]c(=O)nc1N1CCN(c2ccccc2)CC1,> 4 mM (inactive)
5,C#CCCCCCCCCCCCC(=O)CC(O)COC(C)=O (configuration not stated),> 4 mM (inactive)
6,Nc1cccc(NC(=O)c2ccco2)c1,> 4 mM (inactive)
7,O=C(c1ccccc1)N1CCOCC1,> 4 mM (inactive)
8,COCCn1c(SC)nc2c1c(=O)[nH]c(=O)n2C,> 4 mM (inactive)
9,O=c1/c(=C/c2cccs2)sc2ncnn12,> 4 mM (inactive)
10,Nc1ccc(-n2cccc2)cc1,> 4 mM (inactive)
11,NS(=O)(=O)c1ccc(NC(=O)c2cccs2)cc1,> 4 mM (inactive)
12,CC(=O)N1CC2(C)CN(C(C)=O)CC(C)(C1)C2O (configuration not stated),> 4 mM (inactive)
13,CC(=O)c1cccc(NC2=NCC(C)(C)S2)c1,> 4 mM (inactive)
14,COc1cc([C@@H]2c3cc4c(cc3[C@H](O)[C@H]3COC(=O)[C@H]23)OCO4)cc(OC)c1OC,> 4 mM (inactive)
15,O=[N+]([O-])c1cccc2c1nnn2C(CO)OCCO (configuration not stated),> 4 mM (inactive)
16,Cc1c(/C=N\n2cnnc2)c2ccccc2n1C,> 4 mM (inactive)
17,CC(=O)c1ccc(NC(=S)N2CCC(O)CC2)cc1,> 4 mM (inactive)
18,Cc1ccc(C2NS(=O)(=O)N=C2N)cc1 (configuration not stated),> 4 mM (inactive)
19,Nc1ncnc(NCCOCCO)c1[N+](=O)[O-],> 4 mM (inactive)
20,O=C(NC1CSCC1O)c1ccccc1 (configuration not stated),> 4 mM (inactive)
21,Cc1ccc(N2C(=O)CC(=O)NC2=O)cc1,> 4 mM (inactive)
22,Cc1ccc(/C=C2/NC(=S)NC2=O)s1,> 4 mM (inactive)
23,Nc1ccc(C(=O)NCC2CCCO2)cc1 (configuration not stated),> 4 mM (inactive)
24,Cc1cc(C)nc(/N=C(/N)N2CCOCC2)n1,> 4 mM (inactive)
25,CC(=O)NC1(NC(C)=O)CCN(C)CC1,> 4 mM (inactive)

row,Structure (SMILES),Kd
1,CC(=O)NC(=S)Nc1cccc(C(=O)O)c1C,> 4 mM (inactive)
2,CC(=O)c1ccc2c(c1)OCCO2,> 4 mM (inactive)
3,CNC(=O)c1cc(C)c(-c2ccccc2)s1,> 4 mM (inactive)
4,O=C(O)C1C(=O)NCC1c1ccccc1 (configuration not stated),> 4 mM (inactive)
5,NC(=O)c1ccsc1N,> 4 mM (inactive)
6,CC(=O)c1cnc(Nc2nc(C)c3ccccc3n2)nc1C,> 4 mM (inactive)
7,CC(=O)Nc1cccs1,> 4 mM (inactive)
8,Cc1ccccc1NC(=O)CC1SC(N)=NC1=O (configuration not stated),> 4 mM (inactive)
9,CC1CCN(S(=O)(=O)N(C)C)CC1,> 4 mM (inactive)
10,CC1=CCc2c(cc3oc(C)cc(=O)c3c2O)OC1,> 4 mM (inactive)
11,O=C(O)CC12CC3CC(CC(O)(C3)C1)C2,> 4 mM (inactive)
12,COc1ccc(-c2cc(=O)c3c(O)cc(O)c(-c4cc(-c5cc(=O)c6c(O)cc(O)cc6o5)ccc4OC)c3o2)cc1,> 4 mM (inactive)
13,CC(=O)c1c(C)nc2ccccc2c1N,> 4 mM (inactive)
14,Cc1nnsc1C(=O)Nc1ccc(C(N)=O)cc1,> 4 mM (inactive)
15,CS(=O)(=O)c1ccc2nc(N)sc2c1,> 4 mM (inactive)
16,CSc1nc(O)cc(=O)[nH]1,> 4 mM (inactive)
17,C[C@H](CCC(=O)O)[C@H]1CCC2C3C(CC[C@@]21C)[C@@]1(C)CC[C@@H](O)C[C@H]1C[C@H]3O (some centres not stated),> 4 mM (inactive)
18,Cn1c(NCc2ccccc2O)nc2ccccc21,> 4 mM (inactive)
19,COc1cc(O)c2c(=O)c(O)c(-c3ccc(O)c(O)c3)oc2c1,> 4 mM (inactive)
20,O=C(c1ccc(F)cc1)N1CCN(c2ncccn2)CC1,> 4 mM (inactive)
21,Oc1cccc(N2CCOCC2)c1,> 4 mM (inactive)
22,CCNC(=S)N1CCCC(C(N)=O)C1 (configuration not stated),> 4 mM (inactive)
23,NC(=O)C(=O)NCc1ccc(Cl)cc1,> 4 mM (inactive)
24,CC(=O)Nc1ccc(-c2cn3ccsc3n2)cc1,> 4 mM (inactive)
25,NS(=O)(=O)c1ccc(N=C2NC(=O)CS2)cc1,> 4 mM (inactive)

row,Structure (SMILES),Kd
1,Nc1ccc(-n2cncn2)cc1,> 4 mM (inactive)
2,CCC(=O)Nc1cccc(NC(C)=O)c1,> 4 mM (inactive)
3,Cc1nnc(Nc2ccc(S(N)(=O)=O)cc2)[nH]c1=O,> 4 mM (inactive)
4,CC(=O)O[C@]1(C)CC[C@@]23CC1C(C)(C)[C@@H]2CC[C@H]3C,> 4 mM (inactive)
5,O=C(c1ccccc1)c1ccc(N2CCNCC2)cc1,> 4 mM (inactive)
6,CCNC(=S)Nc1c(C)n(C)n(-c2ccccc2)c1=O,> 4 mM (inactive)
7,CN=C(c1ccc([N+](=O)[O-])cc1)N(C)C,> 4 mM (inactive)
8,O=C(CCc1ccc(O)cc1)c1c(O)cc(O)cc1O[C@@H]1O[C@H](CO)[C@@H](O)[C@H](O)[C@H]1O,> 4 mM (inactive)
9,c1ccc(-c2noc(-c3ccco3)n2)nc1,> 4 mM (inactive)
10,CNC(=O)c1ccccc1N,> 4 mM (inactive)
11,O=C1c2ccncc2C(=O)N1CNc1ccccn1,> 4 mM (inactive)
12,Nc1ccc(CN2CCOCC2)cc1,> 4 mM (inactive)
13,O=C(CC1SC(=O)NC1=O)Nc1nccs1 (configuration not stated),> 4 mM (inactive)
14,CC1(C)Cc2cccc(CO)c2O1,> 4 mM (inactive)
15,COc1ccc2c(c1)OC1(O)COc3cc(OC)c(OC)cc3C1=C2 (configuration not stated),> 4 mM (inactive)
16,CCN1C(=O)N(CO)C2C1N(C)C(=O)N2C (configuration not stated),> 4 mM (inactive)
17,CN(C)c1nc(N2CCOCC2)c2cnn(C)c2n1,> 4 mM (inactive)
18,O=C(NCCCSc1ncccn1)Nc1ncccn1,> 4 mM (inactive)
19,CCCCCC1C(=O)CCC1CC(=O)O (configuration not stated),> 4 mM (inactive)
20,O=C(O)c1ccc2ncccc2c1,> 4 mM (inactive)
21,Cc1occc1C(=O)N1CCN(S(C)(=O)=O)CC1,> 4 mM (inactive)
22,c1coc(CNc2nc(-c3ccncc3)cs2)c1,> 4 mM (inactive)
23,COc1ccc2c(c1)O[C@H]1c3ccc(OC)cc3OC[C@@H]21,> 4 mM (inactive)
24,c1ccn(Cc2ccncc2)c1,> 4 mM (inactive)
25,Cc1nc2ccccc2c(=O)n1/N=C/c1ccncc1,> 4 mM (inactive)

row,Structure (SMILES),Kd
1,CCCNC(=O)CSc1nnc(C)s1,> 4 mM (inactive)
2,C[n+]1cccc(C(=O)[O-])c1,> 4 mM (inactive)
3,CC(=O)O[C@@H]1CC2C(C)(C)C(=O)C3OC3[C@]2(C)C2CC[C@@]3(C)[C@H](c4ccoc4)OC(=O)C4OC43[C@@]21C (some centres not stated),> 4 mM (inactive)
4,O=C(O)CCC(=O)Nc1nccs1,> 4 mM (inactive)
5,Nc1ccc2c(c1)OCCO2,> 4 mM (inactive)
6,COc1cccc(Oc2ccc(N)cn2)c1,> 4 mM (inactive)
7,COc1ccc(C(=O)NCC(=O)O)cc1,> 4 mM (inactive)
8,CC(=O)c1c(O)cc(O)cc1O,> 4 mM (inactive)
9,O=c1c2c(nc3nc(Cc4ccccc4)[nH]n13)CCC2,> 4 mM (inactive)
10,Fc1cccc(Cl)c1CN1CCCNCC1,> 4 mM (inactive)
11,Cc1cc(C)nc(N2CC(=O)N(C)C2=N)n1,> 4 mM (inactive)
12,Cc1onc(-c2ccc(F)cc2)c1C(=O)O,> 4 mM (inactive)
13,Cc1nnsc1C(=O)Nc1ccccn1,> 4 mM (inactive)
14,Cn1nnc2cc(CN)ccc21,> 4 mM (inactive)
15,O=C(O)Cn1nnnc1-c1ccc(F)cc1,> 4 mM (inactive)
16,Nc1nnc(-c2ccncc2)s1,> 4 mM (inactive)
17,O=C1OC(N2CCOCC2)c2ccccc21 (configuration not stated),> 4 mM (inactive)
18,CN(C)C(=O)N1CCN(C(=O)c2ccco2)CC1,> 4 mM (inactive)
19,NC(=O)CC[C@H](N)C(=O)O,> 4 mM (inactive)
20,O=c1ccc2nc3ccccc3c(=O)n2[nH]1,> 4 mM (inactive)
21,Nc1ccc2c(c1)CCCC2=O,> 4 mM (inactive)
22,NC(C(=O)O)C(O)C(=O)O (configuration not stated),> 4 mM (inactive)
